Data from patent US20210163404A1, “NOVEL UREA COMPOUNDS AND BIOISOSTERES THEREOF AND THEIR USE FOR TREATING INFLAMMATION AND INFLAMMATION-RELATED PATHOLOGIES” (UNIVERSITÉ LAVAL, priority 2017, published 2021).
Values joined by “and” are separate entries in the source; they are usually repeats but may differ in a detail not shown here. Equal entries are not always repeated.

Legend:
[1] = system: HT-29 colon adenocarcinoma cells; assay: Antiproliferative activity (NCI procedure, sulforhodamine B), HT-29; assay type: cell-based, human; conditions: Homo sapiens, HT-29, unit inferred, tested 781 nM to 100 μM, 48 h
Procedure: (§1) The antiproliferative activity of compounds 3a-b, 4a-e, 5a-e and 6a-e was subsequently evaluated using the human HT-29 colon adenocarcinoma and the A549 adenocarcinoma alveolar epithelial cancer cell lines, the HaCaT spontaneously transformed aneuploid immortal keratinocyte cell line and the HDFn neonatal dermal fibroblast cell line (Table 2). Cell growth inhibition was assessed according to the NCI/NIH Developmental Therapeutics Program.
(§2) The antiproliferative activity assay of all compounds was assessed using the procedure recommended by the National Cancer Institute for its drug screening program with minor modifications. Briefly, 96-well microtiter plates were seeded with 75 μL of a suspension of either HaCaT (5×10^3), HT-29 (3.0×10^3), A549 (3.0×10^3) or HDFn (3×10^3) cells per well in DMEM and incubated for 24 h at 37° C. in a moisture-saturated atmosphere containing 5% CO2. Compounds freshly solubilized in DMSO (40 mM) were diluted in fresh DMEM, and 75 μL aliquots containing serially diluted concentrations of the compound were added. Final compound concentrations ranged from 100 μM to 781 nM. DMSO was maintained at a concentration of <0.5% (v/v) to avoid any related cytotoxicity. Plates were subsequently incubated for 48 h. Cell growth was then stopped by the addition of cold trichloroacetic acid to the wells (10% w/v, final concentration), followed by a 1 h incubation period at 4° C. The plates were washed 4-times with water. A sulforhodamine B solution (75 μL; 0.1% w/v) in acetic acid (1%) was subsequently added to each well and the plates incubated over a 15 min period while at room temperature. After staining, any unbound dye was removed by washing 4-times with an acetic acid solution (1%). Bound dye was solubilized in 20 mM Tris base and the absorbance was measured at an optimal wavelength (530-568 nm) using a μQuant® Universal microplate spectrophotometer (BioTek, Winooski, Vt.). The measurements for treated cells were compared with measurements from control cell plates fixed on treatment day and the percentage of cell growth inhibition was calculated for each drug. The experiments were performed at least twice in triplicate. The assays were considered valid when the coefficient of variation for a given set of conditions and within the same experiment was <10%.

[2] = system: HaCaT keratinocyte cell line; assay: Antiproliferative activity (NCI procedure, sulforhodamine B), HaCaT; assay type: cell-based, human; conditions: Homo sapiens, HaCaT, unit inferred, tested 781 nM to 100 μM, 48 h
Procedure: as §1, §2

[3] = system: HDFn neonatal dermal fibroblast cell line; assay: Antiproliferative activity (NCI procedure, sulforhodamine B), HDFn; assay type: cell-based, human; conditions: Homo sapiens, Fibroblast, unit inferred, tested 781 nM to 100 μM, 48 h
Procedure: as §1, §2

[4] = system: A549 adenocarcinoma alveolar epithelial cancer cells; assay: Antiproliferative activity (NCI procedure, sulforhodamine B), A549; assay type: cell-based, human; conditions: Homo sapiens, A549, unit inferred, tested 781 nM to 100 μM, 48 h
Procedure: as §1, §2

In the case of `S=C(Nc1cccc(I)c1)NC1CC1` [Compound 103], the IC50 ([1]; Table 8) is reported as greater than 100 µM, the IC50 ([2]; Table 8) is reported as greater than 100 µM and the IC50 ([3]; Table 8) is reported as greater than 100 µM. For the same compound, the IC50 ([4]; Table 8) was greater than 100 µM and the melting point was 142 to 152 °C.

`S=C(NCC1CCC1)Nc1cccc(C2CCCCC2)c1` [Compound 106] gave an IC50 ([1]; Table 8) of 13.2 µM, an IC50 ([2]; Table 8) of 14.9 µM and an IC50 ([3]; Table 8) of 4.9 µM. The IC50 ([4]; Table 8) was 17 µM and the melting point was 102 to 110 °C.

With `O=C(NCC1CCC1)Nc1cccc(C2CCCCC2)c1` [Compound 68] the IC50 ([1]; Table 6) was 5.6 µM, the IC50 ([2]; Table 6) was 3.7 µM and the IC50 ([3]; Table 6) was 12 µM. The IC50 ([4]; Table 6) was 8 µM and the melting point was 115 to 120 °C.

`CC(C)NC(=O)Nc1ccc(C2CCCCC2)cc1` [Compound 13] gave an IC50 ([1]; Table 5) of 56.9 µM, an IC50 ([2]; Table 5) greater than 100 µM and an IC50 ([3]; Table 5) of 59.1 µM. The IC50 ([4]; Table 5) was 60.8 µM and the melting point was 163 to 170 °C.

`CC(C)(C)c1cccc(NC(=S)NC2CCCC2)c1` [Compound 91] showed an IC50 ([1]; Table 8) of 21 µM, an IC50 ([2]; Table 8) of 31.8 µM and an IC50 ([3]; Table 8) of 16.3 µM. It also gave an IC50 ([4]; Table 8) of 19.4 µM and a melting point of 170 to 180 °C.

In the case of `S=C(Nc1ccc(C2CCCCC2)cc1)NC1CCCC1` [Compound 89], the IC50 ([1]; Table 8) is reported as 21.6 µM, the IC50 ([2]; Table 8) is reported as 34.9 µM and the IC50 ([3]; Table 8) is reported as 14.6 µM. It also gave an IC50 ([4]; Table 8) of 20 µM and a melting point of 146 to 152 °C.

With `CC(C)(C)NC(=O)Nc1ccc(C2CCCCC2)cc1` [Compound 14] the IC50 ([1]; Table 5) was 25.5 µM, the IC50 ([2]; Table 5) was 35.4 µM and the IC50 ([3]; Table 5) was 17.2 µM. For the same compound, the IC50 ([4]; Table 5) was 18.5 µM and the melting point was 182 to 189 °C.

For `S=C(Nc1cccc(C2CCCCC2)c1)NC1CCCC1` [Compound 107], the IC50 ([1]; Table 8) was 5.7 µM, the IC50 ([2]; Table 8) was 7.9 µM and the IC50 ([3]; Table 8) was 3.8 µM. For the same compound, the IC50 ([4]; Table 8) was 6.2 µM and the melting point was 129 to 142 °C.

Compound `COCCNC(=O)Nc1ccc(I)cc1` [Compound 26, 1-(4-Iodophenyl)-3-(2-methoxyethyl)urea] has a melting point of 141 to 143 °C.

For `CC(C)NC(=O)Nc1cccc(I)c1` [Compound 4], the IC50 ([1]; Table 5) was greater than 100 µM, the IC50 ([2]; Table 5) was 94.5 µM and the IC50 ([3]; Table 5) was 59.1 µM. For the same compound, the IC50 ([4]; Table 5) was 80.3 µM and the melting point was 153 to 156 °C.

Compound `CC(C)(C)CNC(=O)Nc1ccc(C(C)(C)C)cc1` [Compound 65, 1-(4-(t-Butyl)phenyl)-3-neopentylurea] has a melting point of 185 to 187 °C.

In the case of `S=C(Nc1ccc(I)cc1)NC1CCCC1` [Compound 102], the IC50 ([1]; Table 8) is reported as 25.1 µM, the IC50 ([2]; Table 8) is reported as 39.1 µM and the IC50 ([3]; Table 8) is reported as 18.6 µM. For the same compound, the IC50 ([4]; Table 8) was 25.3 µM and the melting point was 154 to 162 °C.

Compound `O=C(NCC1CC1)Nc1cccc(I)c1` [Compound 37, 1-(Cyclopropylmethyl)-3-(3-iodophenyl)urea] has a melting point of 139 to 140 °C.

In the case of `O=C(Nc1cccc(C2CCCCC2)c1)NC1CCCC1` [Compound 69], the IC50 ([1]; Table 6) is reported as 8.9 µM, the IC50 ([2]; Table 6) is reported as 4 µM and the IC50 ([3]; Table 6) is reported as 7.6 µM. For the same compound, the IC50 ([4]; Table 6) was 12 µM and the melting point was 132 to 137 °C.

With `CC(C)(C)NC(=O)Nc1cccc(C2CCCCC2)c1` [Compound 17] the IC50 ([1]; Table 5) was 58.3 µM, the IC50 ([2]; Table 5) was 87.9 µM and the IC50 ([3]; Table 5) was 16.3 µM. It also gave an IC50 ([4]; Table 5) of 44.1 µM and a melting point of 195 to 203 °C.

Work on `CCCNC(=O)Nc1cccc(C(C)(C)C)c1` [Compound 12] yielded an IC50 ([1]; Table 5) greater than 100 µM, an IC50 ([2]; Table 5) greater than 100 µM and an IC50 ([3]; Table 5) of 81.5 µM. The IC50 ([4]; Table 5) was greater than 100 µM and the melting point was 138 to 141 °C.

With `S=C(NCC1CCC1)Nc1cccc(I)c1` [Compound 99] the IC50 ([1]; Table 8) was 27 µM, the IC50 ([2]; Table 8) was 35.5 µM and the IC50 ([3]; Table 8) was 19.4 µM. It also gave an IC50 ([4]; Table 8) of 26.2 µM and a melting point of 136 to 147 °C.

With `O=C(Nc1ccc(I)cc1)NC1CC=CC1` [Compound 35, 1-(Cyclopent-3-en-1-yl)-3-(4-iodophenyl)urea] the melting point was 201 to 202 °C.

For `CCCNC(=O)Nc1cccc(I)c1` [Compound 6], the IC50 ([1]; Table 5) was 87.9 µM, the IC50 ([2]; Table 5) was 99.7 µM and the IC50 ([3]; Table 5) was 44.2 µM. For the same compound, the IC50 ([4]; Table 5) was 80 µM and the melting point was 132 to 136 °C.

With `COCCNC(=O)Nc1ccc(C(C)(C)C)cc1` [Compound 33, 1-(4-(t-Butyl)phenyl)-3-(2-methoxyethyl)urea] the melting point was 122 to 124 °C.

For `S=C(Nc1cccc(I)c1)NC1CCCC1` [Compound 98], the IC50 ([1]; Table 8) was 23.4 µM, the IC50 ([2]; Table 8) was 32.8 µM and the IC50 ([3]; Table 8) was 16.4 µM. For the same compound, the IC50 ([4]; Table 8) was 21.9 µM and the melting point was 136 to 147 °C.

`O=C(NCC1CCCC1)Nc1ccc(C2CCCCC2)cc1` [Compound 59] gave a melting point of 142 to 144 °C.

Compound `CC(C)(C)c1cccc(NC(=O)NC2CCC2)c1` [Compound 46, 1-(3-(t-Butyl)phenyl)-3-cyclobutylurea] has a melting point of 165 to 166 °C.

Compound `CC(C)(C)c1ccc(NC(=O)NC2CCC2)cc1` [Compound 29, 1-(4-(t-Butyl)phenyl)-3-cyclobutylurea] has a melting point of 189 to 190 °C.

With `CC(C)(C)c1cccc(NC(=O)NC2CC=CC2)c1` [Compound 50, 1-(3-(t-Butyl)phenyl)-3-(cyclopent-3-en-1-yl)urea] the melting point was 135 to 137 °C.

Work on `CC(C)(C)CNC(=O)Nc1ccc(C2CCCCC2)cc1` [Compound 61, 1-(4-Cyclohexylphenyl)-3-neopentylurea] yielded a melting point of 167 to 169 °C.

`O=C(NCC1CC1)Nc1ccc(C2CCCCC2)cc1` [Compound 55, 1-(4-Cyclohexylphenyl)-3-(cyclopropylmethyl)urea] showed a melting point of 178 to 181 °C.

`O=C(NCC1CC1)Nc1ccc(I)cc1` [Compound 21, 1-(Cyclopropylmethyl)-3-(4-iodophenyl)urea] showed a melting point of 192 to 194 °C.

In the case of `CC(C)(C)c1cccc(NC(=O)NCC2CCCC2)c1` [Compound 49], the melting point is reported as 113 to 114 °C.

In the case of `CC(C)(C)CNC(=O)Nc1cccc(I)c1` [Compound 43, 1-(3-Iodophenyl)-3-neopentylurea], the melting point is reported as 114 to 115 °C.

With `O=C(Nc1ccc(I)cc1)NC1CCC1` [Compound 22, 1-Cyclobutyl-3-(4-iodophenyl)urea] the melting point was 208 to 210 °C.

With `CC(C)(C)c1cccc(NC(=O)NCC2CC2)c1` [Compound 45, 1-(3-(t-Butyl)phenyl)-3-(cyclopropylmethyl)urea] the melting point was 165 to 166 °C.

Compound `COCCNC(=O)Nc1cccc(I)c1` [Compound 42, 1-(3-Iodophenyl)-3-(2-methoxyethyl)urea] has a melting point of 99 to 101 °C.

Work on `CC(C)(C)CNC(=O)Nc1cccc(C(C)(C)C)c1` [Compound 51, 1-(3-(t-Butyl)phenyl)-3-neopentylurea] yielded a melting point of 145 to 147 °C.

For `CCC(CC)NC(=O)Nc1ccc(C(C)(C)C)cc1` [Compound 34, 1-(4-(t-Butyl)phenyl)-3-(pentan-3-yl)urea], the melting point was 119 to 121 °C.

`COCCNC(=O)Nc1cccc(C(C)(C)C)c1` [Compound 52, 1-(3-(t-Butyl)phenyl)-3-(2-methoxyethyl)urea] showed a melting point of 119 to 120 °C.

For `O=C(NCC1CCCC1)Nc1ccc(I)cc1` [Compound 25, 1-(Cyclopentylmethyl)-3-(4-iodophenyl)urea], the melting point was 158 to 161 °C and 158 to 162 °C.

`CCC(CC)NC(=O)Nc1ccc(I)cc1` [Compound 64, 1-(4-Iodophenyl)-3-(pentan-3-yl)urea] showed a melting point of 174 to 176 °C.

In the case of `O=C(Nc1cccc(I)c1)NC1CCC1` [Compound 38, 1-Cyclobutyl-3-(3-iodophenyl)urea], the melting point is reported as 178 to 180 °C.

Work on `CC(C)(C)c1ccc(NC(=O)NCC2CC2)cc1` [Compound 28, 1-(4-(t-Butyl)phenyl)-3-(cyclopropylmethyl)urea] yielded a melting point of 168 to 170 °C.

In the case of `CCC(CC)NC(=O)Nc1cccc(C(C)(C)C)c1` [Compound 53, 1-(3-(t-Butyl)phenyl)-3-(pentan-3-yl)urea], the melting point is reported as 159 to 161 °C.
